From ChEMBL document CHEMBL4007392, “Modulating Mineralocorticoid Receptor with Non-steroidal Antagonists. New Opportunities for the Development of Potent and Selective Ligands without Off-Target Side Effects” (J Med Chem, 2017)

Tests used:
[1] = biological target: T1, Mineralocorticoid receptor (Rattus norvegicus, UniProt P22199); assay: Displacement of [3H]-Aldosterone from MR in rat renal soluble fraction measured after 18 hrs in presence of glucocorticoid receptor antagonist RU-486 by liquid scintillation counting method
T1 sequence (P22199 whole entry): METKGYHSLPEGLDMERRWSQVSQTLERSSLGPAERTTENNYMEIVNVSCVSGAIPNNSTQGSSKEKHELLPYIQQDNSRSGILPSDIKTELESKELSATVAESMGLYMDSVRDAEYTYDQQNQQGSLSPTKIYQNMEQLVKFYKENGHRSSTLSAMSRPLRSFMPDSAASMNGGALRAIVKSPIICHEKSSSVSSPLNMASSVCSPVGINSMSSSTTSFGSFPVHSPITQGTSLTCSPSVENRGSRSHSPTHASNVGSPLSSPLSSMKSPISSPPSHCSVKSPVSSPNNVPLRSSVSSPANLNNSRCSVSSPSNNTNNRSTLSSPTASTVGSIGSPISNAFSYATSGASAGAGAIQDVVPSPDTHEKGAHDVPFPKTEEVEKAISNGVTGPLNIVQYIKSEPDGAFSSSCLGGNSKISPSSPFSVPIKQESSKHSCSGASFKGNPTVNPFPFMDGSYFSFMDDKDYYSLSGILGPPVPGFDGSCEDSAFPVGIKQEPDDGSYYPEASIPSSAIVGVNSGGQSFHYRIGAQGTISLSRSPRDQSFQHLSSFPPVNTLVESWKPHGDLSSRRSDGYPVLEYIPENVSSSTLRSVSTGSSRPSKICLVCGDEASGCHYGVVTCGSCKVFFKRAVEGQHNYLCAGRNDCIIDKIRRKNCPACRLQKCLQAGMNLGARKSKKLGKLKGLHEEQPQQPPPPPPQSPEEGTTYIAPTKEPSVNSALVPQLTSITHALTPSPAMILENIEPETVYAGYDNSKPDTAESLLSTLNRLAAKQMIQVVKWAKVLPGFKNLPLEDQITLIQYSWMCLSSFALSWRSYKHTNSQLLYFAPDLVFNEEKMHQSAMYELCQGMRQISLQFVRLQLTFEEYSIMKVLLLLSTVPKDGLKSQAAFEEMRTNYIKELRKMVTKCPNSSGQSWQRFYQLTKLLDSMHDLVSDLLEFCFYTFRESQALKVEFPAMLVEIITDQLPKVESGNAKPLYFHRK

[2] = biological target: T2, Mineralocorticoid receptor (Homo sapiens, UniProt P08235); assay: Binding affinity to MR (unknown origin)
T2 sequence (P08235 whole entry): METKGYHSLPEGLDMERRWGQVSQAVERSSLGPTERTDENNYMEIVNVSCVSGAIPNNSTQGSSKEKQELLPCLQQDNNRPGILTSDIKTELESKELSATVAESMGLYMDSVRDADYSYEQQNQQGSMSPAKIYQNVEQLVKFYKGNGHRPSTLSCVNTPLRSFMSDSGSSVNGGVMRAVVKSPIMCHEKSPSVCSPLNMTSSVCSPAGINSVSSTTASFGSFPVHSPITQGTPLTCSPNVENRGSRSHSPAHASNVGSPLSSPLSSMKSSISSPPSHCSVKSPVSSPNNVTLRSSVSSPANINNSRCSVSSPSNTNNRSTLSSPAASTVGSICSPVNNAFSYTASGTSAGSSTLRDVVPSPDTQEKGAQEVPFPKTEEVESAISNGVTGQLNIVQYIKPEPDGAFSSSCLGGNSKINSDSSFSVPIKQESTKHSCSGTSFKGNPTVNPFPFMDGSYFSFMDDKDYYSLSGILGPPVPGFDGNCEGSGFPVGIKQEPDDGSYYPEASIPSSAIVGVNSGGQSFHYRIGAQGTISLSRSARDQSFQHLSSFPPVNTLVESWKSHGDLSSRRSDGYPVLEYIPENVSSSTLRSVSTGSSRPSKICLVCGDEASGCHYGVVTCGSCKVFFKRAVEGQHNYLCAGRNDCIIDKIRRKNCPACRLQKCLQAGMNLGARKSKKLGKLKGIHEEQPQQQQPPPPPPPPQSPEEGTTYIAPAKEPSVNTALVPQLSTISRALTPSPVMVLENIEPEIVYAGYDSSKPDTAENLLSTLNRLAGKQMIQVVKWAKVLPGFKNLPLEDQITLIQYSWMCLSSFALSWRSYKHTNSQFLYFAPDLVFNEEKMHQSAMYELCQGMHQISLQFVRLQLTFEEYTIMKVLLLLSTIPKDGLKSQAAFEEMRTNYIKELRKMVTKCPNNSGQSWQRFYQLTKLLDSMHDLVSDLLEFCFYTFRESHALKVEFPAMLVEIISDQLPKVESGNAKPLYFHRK

[3] = biological target: T2, Mineralocorticoid receptor; assay: Displacement of [3H]-Aldosterone from MR overexpressed in human 293 cells measured after overnight incubation by TopCount method; assay type: cell-based
Glucocorticoid receptor [4] = biological target: T3, Glucocorticoid receptor (Homo sapiens, UniProt P04150); assay: Displacement of [3H]-dexamethasone from GR overexpressed in human 293 cells measured after overnight incubation by TopCount method; assay type: cell-based
T3 sequence (P04150 whole entry): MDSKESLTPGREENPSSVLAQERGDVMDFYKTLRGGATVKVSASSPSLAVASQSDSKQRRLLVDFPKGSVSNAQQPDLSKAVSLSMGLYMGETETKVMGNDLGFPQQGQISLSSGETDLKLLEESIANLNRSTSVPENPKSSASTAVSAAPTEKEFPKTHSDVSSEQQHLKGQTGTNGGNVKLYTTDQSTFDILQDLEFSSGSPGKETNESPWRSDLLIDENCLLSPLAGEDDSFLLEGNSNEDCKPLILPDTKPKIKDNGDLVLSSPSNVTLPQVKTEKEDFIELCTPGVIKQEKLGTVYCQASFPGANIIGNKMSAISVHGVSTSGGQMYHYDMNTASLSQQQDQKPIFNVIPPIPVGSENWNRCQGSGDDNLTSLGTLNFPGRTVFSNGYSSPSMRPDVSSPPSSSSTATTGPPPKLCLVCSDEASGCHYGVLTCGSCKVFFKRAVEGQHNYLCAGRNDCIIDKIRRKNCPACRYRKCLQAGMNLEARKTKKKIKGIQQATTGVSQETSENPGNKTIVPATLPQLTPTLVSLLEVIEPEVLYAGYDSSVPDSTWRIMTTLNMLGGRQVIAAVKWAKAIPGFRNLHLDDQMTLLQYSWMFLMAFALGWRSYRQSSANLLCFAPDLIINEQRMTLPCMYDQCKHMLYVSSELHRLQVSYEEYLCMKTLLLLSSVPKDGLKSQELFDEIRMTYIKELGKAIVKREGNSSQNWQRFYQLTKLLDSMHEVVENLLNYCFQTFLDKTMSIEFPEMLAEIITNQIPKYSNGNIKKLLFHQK

[5] = Half life in human liver microsomes; assay type: ADME, microsome
[6] = biological target: T4, Mineralocorticoid receptor (Homo sapiens) (UniProt P08235); assay: Antagonist activity at full-length human MR expressed in CHO-K1 cells assessed as inhibition of aldosterone-induced response measured after overnight incubation by luminesence analysis; assay type: cell-based
T4 sequence (whole entry): T2 sequence (P08235 whole entry)

[7] = Half life in rat; assay type: ADME; details: in vivo
[8] = Clearance in rat; assay type: ADME; details: in vivo
[9] = Half life in human hepatocytes; assay type: ADME, cell-based, Hepatocyte
[10] = biological target: T2, Mineralocorticoid receptor; assay: Antagonist activity at Gal4-fused MR LBD (unknown origin) expressed in human Huh7 cells assessed as inhibition of aldosterone-induced transcriptional activity after 3 hrs by luciferase reporter gene assay; assay type: cell-based
[11] = biological target: T2, Mineralocorticoid receptor; assay: Antagonist activity at Gal4-fused human MR LBD (734 to 985 residues) expressed in CHO-K1 cells after 5 to 6 hrs by luciferase reporter gene assay; assay type: cell-based
Progesterone receptor = biological target: T5, Progesterone receptor (Homo sapiens, UniProt P06401); assay: Antagonist activity at GAL4-fused human PR LBD (680 to 933 residues) expressed in CHO-K1 cells assessed as inhibition of progesterone-induced transactivation activity after 5 to 6 hrs by luciferase reporter gene assay; assay type: cell-based
T5 sequence (P06401 whole entry): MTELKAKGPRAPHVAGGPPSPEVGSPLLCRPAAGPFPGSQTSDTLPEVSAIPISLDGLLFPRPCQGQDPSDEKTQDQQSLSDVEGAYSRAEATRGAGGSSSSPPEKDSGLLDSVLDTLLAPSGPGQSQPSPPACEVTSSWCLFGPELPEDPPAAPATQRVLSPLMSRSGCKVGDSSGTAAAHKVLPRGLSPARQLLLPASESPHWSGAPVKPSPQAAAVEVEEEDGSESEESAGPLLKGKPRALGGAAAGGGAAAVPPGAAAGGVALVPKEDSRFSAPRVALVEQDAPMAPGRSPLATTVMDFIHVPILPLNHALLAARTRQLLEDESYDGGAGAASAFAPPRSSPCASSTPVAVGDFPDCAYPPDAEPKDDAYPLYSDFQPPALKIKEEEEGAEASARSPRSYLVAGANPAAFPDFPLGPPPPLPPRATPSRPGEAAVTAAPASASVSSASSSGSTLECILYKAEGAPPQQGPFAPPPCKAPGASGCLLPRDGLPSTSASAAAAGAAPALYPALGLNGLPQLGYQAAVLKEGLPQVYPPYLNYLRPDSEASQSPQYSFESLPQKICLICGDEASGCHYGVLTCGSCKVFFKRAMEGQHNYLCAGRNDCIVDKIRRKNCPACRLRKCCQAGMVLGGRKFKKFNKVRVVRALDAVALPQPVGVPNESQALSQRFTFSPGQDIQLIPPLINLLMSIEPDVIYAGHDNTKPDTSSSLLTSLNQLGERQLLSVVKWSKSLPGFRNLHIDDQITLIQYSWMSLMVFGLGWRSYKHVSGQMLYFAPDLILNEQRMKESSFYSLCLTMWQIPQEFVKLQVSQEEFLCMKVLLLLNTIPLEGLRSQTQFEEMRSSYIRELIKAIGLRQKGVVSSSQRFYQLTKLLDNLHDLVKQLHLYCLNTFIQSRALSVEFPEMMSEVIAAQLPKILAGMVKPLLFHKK

Glucocorticoid receptor [12] = biological target: T3, Glucocorticoid receptor; assay: Antagonist activity at GAL4-fused human GR LBD (443 to 777 residues) expressed in CHO-K1 cells assessed as inhibition of dexamethasone-induced transactivation activity after 5 to 6 hrs by luciferase reporter gene assay; assay type: cell-based
Androgen receptor = biological target: T6, Androgen receptor (Homo sapiens, UniProt P10275); assay: Antagonist activity at GAL4-fused human AR LBD (667 to 919 residues) expressed in CHO-K1 cells assessed as inhibition of dihydrotestosterone-induced transactivation activity after 5 to 6 hrs by luciferase reporter gene assay; assay type: cell-based
T6 sequence (P10275 whole entry): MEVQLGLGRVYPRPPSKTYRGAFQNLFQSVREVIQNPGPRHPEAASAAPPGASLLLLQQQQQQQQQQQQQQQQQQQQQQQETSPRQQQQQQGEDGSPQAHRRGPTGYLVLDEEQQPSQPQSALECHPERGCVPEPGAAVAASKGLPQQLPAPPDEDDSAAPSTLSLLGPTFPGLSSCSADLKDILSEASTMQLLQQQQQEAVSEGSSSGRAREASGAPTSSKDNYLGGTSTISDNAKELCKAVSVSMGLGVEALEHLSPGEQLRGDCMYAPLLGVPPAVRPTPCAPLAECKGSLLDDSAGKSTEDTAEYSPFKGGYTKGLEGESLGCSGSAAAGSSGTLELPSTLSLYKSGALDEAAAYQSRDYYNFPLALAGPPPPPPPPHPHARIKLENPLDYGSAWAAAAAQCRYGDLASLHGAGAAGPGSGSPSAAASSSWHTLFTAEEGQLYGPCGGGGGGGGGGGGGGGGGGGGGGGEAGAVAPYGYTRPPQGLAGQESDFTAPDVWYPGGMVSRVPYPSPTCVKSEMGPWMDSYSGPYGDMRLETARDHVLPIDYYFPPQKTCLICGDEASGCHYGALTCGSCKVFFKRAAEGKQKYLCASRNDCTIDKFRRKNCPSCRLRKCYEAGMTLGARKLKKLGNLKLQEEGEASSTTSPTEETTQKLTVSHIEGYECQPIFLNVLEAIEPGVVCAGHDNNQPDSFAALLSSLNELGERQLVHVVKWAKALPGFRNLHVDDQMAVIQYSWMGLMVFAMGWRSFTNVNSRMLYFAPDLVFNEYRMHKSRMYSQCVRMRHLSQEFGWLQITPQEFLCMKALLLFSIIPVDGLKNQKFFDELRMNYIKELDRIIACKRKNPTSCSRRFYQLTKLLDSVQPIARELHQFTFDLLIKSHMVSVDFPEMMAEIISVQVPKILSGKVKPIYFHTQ

COc1cc(NC(=O)c2ccc(-c3ccccc3OC(F)(F)F)c(CCN(C)C3CC3)c2)ccc1S(N)(=O)=O
IC50 [1]: 22 nM

C[C@]12CCC(=O)C=C1CC[C@@H]1[C@@H]2[C@@H](O)C[C@@]2(C)[C@H]1CC[C@]2(O)C(=O)CO [HYDROCORTISONE]
Kd [2]: 0.5 to 2 nM

Cc1ccc(C(C)(c2c[nH]c3c(NS(C)(=O)=O)cccc23)C2CC2)cc1 (stereo not given)
Ki [3]: ≤ 500 nM | Ki (Glucocorticoid receptor [4]): ≤ 500 nM

CCC(c1ccc(C(F)(F)F)cc1)(C(O)C(F)F)n1ncc2c(NS(C)(=O)=O)cccc21 (stereo not given)
half-life [5]: 1.03 h | Inhibitory potency [6]: 11 nM | half-life [7]: 9.9 h | clearance [8]: 3.8 mL/min/kg | half-life [9]: > 1.5 h

C[C@@H]1CN(c2ccc3c(c2)NC(=O)CO3)[C@H](c2ccccc2F)CO1
IC50 [10]: 33.4 nM

C[C@]12C[C@H](O)[C@H]3[C@@H](CCC4=CC(=O)CC[C@@]43C)[C@@H]1CC[C@@H]2C(=O)CO [CORTICOSTERONE]
Kd [2]: 0.5 to 2 nM

CCOc1ncc(C)c2c1[C@H](c1ccc(C#N)cc1OC)C(C#N)=C(C)N2
IC50 [11]: 26 nM | IC50 (Progesterone receptor): 4200 nM | IC50 (Glucocorticoid receptor [12]): 5800 nM | IC50 (Androgen receptor): 2400 nM
